Results as given in patent US12180255B2, “Compositions and methods for derepressing RE1 silencing transcription factor target genes” (Alcamena Stem Cell Therapeutics, LLC, priority 2019, dated 2024).
Where a SMILES comes first, the peptide text is derived from it. [ ]: non-standard residue; d: D form. Gly(Dodecyl) = CCCCCCCCCCCC[C@H](N)C(=O)O

How the values were obtained:
Assay type in all cases: biochemical
PPP1CA = PPP1CA (Homo sapiens, UniProt P62136); assay: Off target phosphatase activity on phosphorylated REST peptide; conditions: 10000 nM RPP
Chain of PPP1CA (P62136 whole entry, species assumed): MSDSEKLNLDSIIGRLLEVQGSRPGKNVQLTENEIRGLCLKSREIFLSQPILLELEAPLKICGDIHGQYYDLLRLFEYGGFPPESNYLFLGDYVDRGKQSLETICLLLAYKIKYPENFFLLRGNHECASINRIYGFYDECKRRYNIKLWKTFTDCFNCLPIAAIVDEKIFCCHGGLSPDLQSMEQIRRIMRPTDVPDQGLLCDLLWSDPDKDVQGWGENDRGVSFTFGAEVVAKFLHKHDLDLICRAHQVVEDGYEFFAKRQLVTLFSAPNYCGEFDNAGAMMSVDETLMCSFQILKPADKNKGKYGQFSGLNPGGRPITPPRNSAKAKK

PP3CA = PP3CA (Homo sapiens, UniProt Q08209); assay: as above; conditions: 10000 nM RPP
CTDSP1 [1] = biological target: T1, CTDSP1 (Homo sapiens, UniProt Q9GZU7); assay: In vitro CTDSP1 phosphatase activity on phosphorylated REST peptide; conditions: relative to water control
T1 construct: GSGS linker + His6 (C)
T1 sequence (Q9GZU7 with tags, fused parts or gaps): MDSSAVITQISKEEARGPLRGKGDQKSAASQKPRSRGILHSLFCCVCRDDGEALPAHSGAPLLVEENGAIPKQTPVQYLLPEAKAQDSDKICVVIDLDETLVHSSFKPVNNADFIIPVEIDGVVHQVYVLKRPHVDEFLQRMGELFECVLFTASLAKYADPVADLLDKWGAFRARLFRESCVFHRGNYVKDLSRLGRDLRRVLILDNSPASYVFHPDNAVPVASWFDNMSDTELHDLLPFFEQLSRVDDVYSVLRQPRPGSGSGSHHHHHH

CTDSP1 [2] = biological target: T1, CTDSP1; assay: as above; conditions: phosphorylated REST peptide substrate; read-out: EC50, inhibition of CTDSP1 activity
Protocol: FIG. 25. In vitro CTDSP1 phosphatase activity (relative to GST control) on the REST peptide (TEDpSPPp[…] (SEQ ID NO: 329)) as a substrate after exposure to 1 μM of RPP (SEQ ID NO: 1) or one of its variants (Table 3).
FIG. 26. […] N=5, error bars are standard deviation.
Results: FIG. 25—The top 51 most abundant RPP variants identified in the RNA display/protein evolution screen are listed in-Table 3 in the order of most (V1) to least (V51) abundant peptides. The primers used to make these peptides are listed in-Table 5. A phosphatase activity screen (Table 6, FIG. 25) was used to assess the ability of the top 51 RPPV to inhibit CTDSP1 phosphatase activity at amino acids 861 and 864 on the endogenous phosphorylated REST peptide (TEDpSPPp[…] (SEQ ID NO: 329)).
The phosphorylated REST peptide (TEDpSPPp[…] (SEQ ID NO: 329)) was synthesized by GeneScript. Phosphatase reactions were performed with 10 mM Tris pH 8, 10 mM MgCl2, 100 nM CTDSP1, 0.5 μM phosphate sensor (Thermo Fischer), 50 μM of REST peptide and various concentrations of peptide-GST fusions at room temperature for 10 min. All assays were performed in 96-well pates (Corning P/N 3686) rinsed with water 10 times. Fluorescence was measured by BioTek Synergy HTX using kinetic read with excitation at 420/27 nm and emission at 485/20 nm.

Q: What does the source list for `CCCCCCCCCCCC[C@@H]1NC(=O)[C@@H](CCCNC(=N)N)NC(=O)[C@@H](CCCNC(=N)N)NC(=O)[C@@H](Cc2c[nH]c3ccccc23)NC(=O)[C@@H](Cc2c[nH]c3ccccc23)NC(=O)[C@@H](CCCNC(=N)N)NC(=O)[C@@H](CCC(=O)O)NC(=O)[C@@H](CC(=O)O)NC(=O)[C@@H](CC(C)C)NC(=O)[C@@H](CCC(=O)O)NC(=O)[C@H]2CCCN2C(=O)[C@H]2CCCN2C(=O)[C@@H](CCC(=O)O)NC(=O)[C@H]2CCCN2C(=O)[C@H]2CCCN2C(=O)[C@@H](CC(C)C)NC(=O)[C@H]2CCCN2C(=O)[C@@H](CCCCN)NC(=O)[C@@H](CCCNC(=N)N)NC(=O)[C@@H](CCCNC(=N)N)NC(=O)[C@@H](CCCNC(=N)N)NC(=O)[C@@H](CCCNC(=N)N)NC(=O)[C@@H](CCCNC(=N)N)NC1=O` [SEQ ID NO: 12] (cyclo([dR][dW][dW][dR][dR][Gly(Dodecyl)][dR][dR][dR][dR][dR][dK][dP][dL][dP][dP][dE][dP][dP][dE][dL][dD][dE]))?
A: % Activity (Average N = 5) (PPP1CA): 101.136%; % Activity (Average N = 5) (PP3CA): 100.222%; % Activity (Average N = 5) (CTDSP1 [1]; 10 nM RPP): 89.97%; % Activity (Average N = 5) (CTDSP1 [1]; 20 nM RPP): 48.7%; % Activity (Average N = 5) (CTDSP1 [1]; 40 nM RPP): 34.46%; % Activity (Average N = 5) (CTDSP1 [1]; 60 nM RPP): 31.17%; % Activity (Average N = 5) (CTDSP1 [1]; 80 nM RPP): 22.67%; % Activity (Average N = 5) (CTDSP1 [1]; 100 nM RPP): 13.72%; EC50 (CTDSP1 [2]): ~20 nM
